Like-named read-outs stand apart in the source and are kept apart here.
Key:
[1] = Thermal stability by differential scanning calorimetry (DSC); format: physicochemical; settings: for Thermal stability: Table 7 summary, temperature stress, DSC and TGA; for Thermal stability / DSC: thermal events / phase transformations before melting: 25 to 250° C. at 10 K/min; for DSC: thermal events / phase transformations before melting: nitrogen purge; for Physically stable toward temperature stress: no thermal events in DSC until start to melt at: DSC 10 K/min
Protocol: DSC was performed on a Mettler Polymer DSC R instrument. […] Nitrogen (purge rate 50 mL/min) was used as purge gas.

[2] = Thermogravimetric analysis (TGA) mass loss on heating; format: physicochemical; settings: 10 K/min
Protocol: TGA was performed on a Mettler TGA/DSC 1 instrument. The samples (9.53 mg Form 1 and 8.16 mg Form 2, 8.12 mg 1,4-dioxane solvate) were heated in a 100 microliter aluminum pan closed with an aluminum lid. The lid was automatically pierced at the beginning of the measurement. The samples were heated from 25 to 250° C. at a rate of 10 K/min. Nitrogen (purge rate 50 mL/min) was used as purge gas.
Also, no significant mass loss is visible in the TGA curves of Form 1 and Form 2 until they melt.

[3] = cited from earlier work
[4] = up to a temperature of about 170° C.

## C1COCCO1.O=C(O)CNC(=O)c1ncc(-c2cccc(Cl)c2)cc1O [Vadadustat 1,4-dioxane solvate, reference compound]
[1]; 10 K/min
  DSC onset of first broad endothermic peak (release of 1,4-dioxane from the crystal structure): about 78 °C
[1]
  Thermal stability: desolvation below 100 °C
[2]
  Temperature at which TGA mass loss starts: about 40 °C
[2]; [4]
  TGA mass loss: about 19 weight %

## O=C(O)CNC(=O)c1ncc(-c2cccc(Cl)c2)cc1O [Vadadustat hydrate]
[3]; Table 7 summary, hydrate of WO 2018/108101 A1, temperature stress
  Thermal stability: dehydration below 100 °C
[3]; background statement on hydrate CS2 of WO 2018/108101 A1
  Physical stability upon temperature stress: physically unstable upon temperature stress

## O=C(O)CNC(=O)c1ncc(-c2cccc(Cl)c2)cc1O [Vadadustat L-proline form 2, vadadustat L-proline]
[1]; listed as vadadustat L-proline form 2
  DSC: thermal events / phase transformations before melting: undergoes no phase transformations but is stable until it melts
[1]; listed as Form 2
  Physically stable toward temperature stress: no thermal events in DSC until start to melt at: ~178 °C
[2]; up to a temperature of about 180° C.
  TGA mass loss: about 0.15 weight %

## O=C(O)CNC(=O)c1ncc(-c2cccc(Cl)c2)cc1O [Vadadustat L-proline form 1, vadadustat L-proline]
[1]; listed as vadadustat L-proline form 1
  DSC: thermal events / phase transformations before melting: undergoes no desolvation or phase transformations but is stable until it melts
[1]; listed as Form 1
  Physically stable toward temperature stress: no thermal events in DSC until start to melt at: about 170 °C
[1]
  Thermal stability: physically stable until melting at
[2]; [4]
  TGA mass loss: about 0.20 weight %

— patent US11970450B2, “Multi-component crystals of an orally available HIF prolyl hydroxylase inhibitor” (Sandoz AG, priority 2018, dated 2024)
